Source: patent publication US4112073A, “Medicinal composition comprising adrenal cortical hormone and thyroid stimulating hormone releasing hormone” (Takeda Chemical Industries, Ltd., priority 1975, dated 1978)
Entries after “also recorded” stand apart in the source; their conditions may differ.

Legend:
[1] = relative clinical effect of ACH; cited from earlier work
[2] = Relative clinical effect of ACH (dexamethasone equivalent); conditions: for Equivalent (dexamethasone equivalent): dexamethasone taken as unity
Excerpt: The relative amounts of ACH and TSH-releasing hormones may be determined according to the particular dosage form, the disease to be treated and other factors. Generally speaking, the ratio is about 1 (dexamethasone equivalent): 0.05 to 5, advantageously 0.05 to 2, and especially 0.1 to 1. The preferred ratio in each dosage form is; in the case of injections, about 1 (dexamethasone equivalent): 0.05 to 1, advantageously 0.1 to 1; in the case of oral preparations, about 1 (dexamethasone equivalent): 1 to 5, advantageously 1 to 2; and in the case of topical preparations, infusions and implants, about 1 (dexamethasone equivalent): 0.5 to 5, advantageously 0.5 to 2. The `dexamethasone equivalent` is an index number representing the relative clinical effect of any ACH with the effect of dexamethasone being taken as unity.

[3] = tested on: chronic moist dermatitis (in dogs); conditions: oral tablets; Akitaken, 25 kg
Protocol: Diagnosis: Chronic moist dermatitis
Therefore, on the next day one tablet containing 0.5 mg of dexamethasone and 1 mg of TRH tartrate was orally administered. […] As an adjunct to the medication, the dog was placed on a controlled regimen.

[4] = tested on: eczema (in dogs); test: Treatment of eczema in dogs with ointment (Example 2); conditions: hydrophilic ointment 0.1%, externally applied

| Structure (SMILES) | Clinical effect [1] | clinical efficacy / potency compared with dexamethasone [2] | Equivalent (dexamethasone equivalent) [2] | therapeutic response [3] | therapeutic result ([4]; 4 dogs with exudative eczema) | adverse response ([4]; dogs with exudative eczema) |
| --- | --- | --- | --- | --- | --- | --- |
| C[C@H]1C[C@H]2[C@@H]3CCC4=CC(=O)C=C[C@]4(C)[C@@]3(F)[C@@H](O)C[C@]2(C)[C@@]1(O)C(=O)CO [Betamethasone, 9α-fluoro-16α-methylprednisolone] | 30 | as potent as dexamethasone | 1 | – | – | – |
| C[C@@H]1C[C@H]2[C@@H]3CCC4=CC(=O)C=C[C@]4(C)[C@@]3(F)[C@@H](O)C[C@]2(C)[C@@]1(O)C(=O)CO [Dexamethasone, 9α-fluoro-16α-methylprednisolone] | 30.0 | – | 1 | failed to elicit a response | – | – |
| C[C@]12CCC(=O)C=C1CC[C@@H]1[C@@H]2[C@@H](O)C[C@@]2(C)[C@H]1CC[C@]2(O)C(=O)CO [Hydrocortisone] | 1.0 | – | 30 | – | – | – |
| C[C@H]1C[C@@H]2[C@H]([C@@H](O)C[C@@]3(C)[C@H]2CC[C@]3(O)C(=O)CO)[C@@]2(C)C=CC(=O)C=C12 [Methylprednisolone, 6α-methylprednisolone] | 5.0 | – | 6 | – | – | – |
| C[C@@H]1C[C@H]2[C@@H]3C[C@H](F)C4=CC(=O)C=C[C@]4(C)[C@H]3[C@@H](O)C[C@]2(C)[C@@]1(O)C(=O)CO [Paramethasone, 6α-fluoro-16α-methylprednisolone] | 10.0 | – | 3 | – | – | – |
| C[C@]12C=CC(=O)C=C1CC[C@@H]1[C@@H]2[C@@H](O)C[C@@]2(C)[C@H]1CC[C@]2(O)C(=O)CO [Prednisolone, prednisolone] | 4.0 | – | 7.5 | – | – | – |
| C[C@]12C=CC(=O)C=C1CC[C@H]1[C@@H]3C[C@@H](O)[C@](O)(C(=O)CO)[C@@]3(C)C[C@H](O)[C@@]12F [Triamcinolone, 9α-fluoro-16α-hydroxyprednisolone] | 5.0 | one-sixth | 6 | – | – | – |
| C[C@@H]1C[C@H]2[C@@H]3CCC4=CC(=O)C=C[C@]4(C)[C@@]3(F)[C@@H](O)C[C@]2(C)[C@@]1(O)C(=O)COP(=O)(O)O [dexamethasone phosphate] | – | – | – | – | a passing mitigation of inflammation or itchiness; also recorded: substantially no successful therapeutic result was obtained | an increase in the amount of exudate |
